The text below walks through data of US10550130B2, “Benzo-thiazolo-imidazole compounds and uses thereof” (KING SAUD UNIVERSITY, priority 2015, dated 2020).

Type in all cases: cell-based
For one data set, the system named is SKBR3. The data set can be described thus: Cell proliferation by 3H-thymidine uptake assay. As to conditions: Homo sapiens, SK-BR-3, 72 h, read-out: IC50, growth inhibition (3H-thymidine uptake). The procedure: (§1) In vitro antitumor activity of the compound was assessed by ^3H-thymidine uptake. The cells were treated and they were about 60% confluent. Cells were seeded at 4×10^3 cells per well in a 96 well plate in DMEM containing 10% FBS for 24 h followed by treatment with control media (0.1% DMSO) or media containing different concentration of the compound incubated for 72 h at 37° C. in 5% CO2. Cells were labelled by addition of ^3H-thymidine (Amersham, Chiltern Hills, London, UK) at 1 μCi/well for 18 h before harvesting. ^3H-thymidine uptake was measured using a 1450 Micro Beta PLUS liquid scintillation counter (Wallac, Waltham, Mass., USA).
(§2) In another experiment, the in vitro antitumor activity of the compound was assessed by a 3H-thymidine uptake experiment. To this end, cells of the tumor cell lines MCF-7, SKBR3 and MDA-MB-468 were seeded at 4×10^3 cells per well in a 96 well plate in DMEM containing 10% FBS for 24 h followed by treatment with control media (0.1% DMSO) or media containing different concentration of the compound (5 μM, 10 μM, 20 μM, 40 μM or 80 μM final concentration of KSA-101696) and incubated for 72 h at 37° C. in 5% CO2. At about 60% confluency, cells were labelled by addition of 3H-thymidine (Amersham, Chiltern Hills, London, UK) at 1 μCi/well for 18 h before harvesting. 3H-thymidine uptake was measured using a 1450 Micro Beta PLUS liquid scintillation counter (Wallac, Waltham, Mass., USA).

For a further data set, the system named is MDA-MB-468. Put plainly: Cell proliferation by 3H-thymidine uptake assay. As to conditions: Homo sapiens, 72 h, read-out: IC50, growth inhibition (3H-thymidine uptake). Here is the method:
as §1, §2

In another data set the test system is MCF-7. The data set can be described thus: Cell proliferation by 3H-thymidine uptake assay. As to conditions: Homo sapiens, MCF7, 72 h, read-out: IC50, growth inhibition (3H-thymidine uptake). Here is the method: as §1, §2
In data set [1] the test system is normal cells MCF-10 A, HSFN1 (human foreskin cells) and BM4 (bone marrow derived mesenchymal stem cells). Put plainly: Annexin V binding by flow cytometry (apoptosis) in normal cells. As to conditions: 20 μM, 48 h. The procedure:
It is known that loss of phospholipid asymmetry of the plasma membrane is an early event of apoptosis. The annexin V binds to negatively charged phospholipids, like phosphatidylserine. During apoptosis, the cells react to annexin V once chromatin condenses but before the plasma membrane loses its ability to exclude propidium iodide (PI).
Annexin-V staining was performed by using Vybrant Apoptosis Assay Kit #2 (Molecular Probes) following the manufacturer's recommendations. Annexin-V stained cells were analyzed by flow cytometry, measuring the fluorescence emission between 515 nm to 545 nm.
To evaluate the selective-apoptotic effect of the compound in cancer cells but not normal cells, the cancer cell lines SKBR3, MDA-MB-468, and normal cells MCF-10 A, HSFN1 (human foreskin cells) and BM4 (bone marrow derived mesenchymal stem cells) were used. […] Upon treatment of cells with 20 μM for 48 h, cells were stained with Annexin-V and PI and binding of Annexin-V and PI to the cells was determined by flow cytometry.
On the technique in general: Flow cytometry measures light scatter and fluorescence of single cells or particles in a stream.

Another data set has as its system MCF-7 cells. The data set can be described thus: Flow cytometric analysis of cellular DNA content (cell cycle distribution). As to conditions: 20 μM, 8, 16, 12 and 48 h. The procedure: 2×10^6 cells were fixed in 1 ml ethanol (70%) for 60 min at room temperature. Harvested cells were resuspended in 1 ml Na citrate (50 mM) containing 250 μg RNase A and incubated at 50° C. for 60 min. Next, cells were resuspended in the same buffer containing 4 μg propidium iodide (PI) and incubated for 30 min before being analyzed by flow cytometry (Becton Dickinson, San. Jose, Calif., USA). The percentage of cells in various cell cycle phases was determined by using Cell Quest Pro software (Becton Dickinson).
To gain insight into the mechanism by which anti-proliferation was achieved, the effect on cell cycle distribution was investigated by fluorescence-activated cell sorting (FACS) analysis. […] This was also accompanied by a compensatory decrease in G1 phase cells. Based on histograms the compound blocks the cells on early stage of mitosis, thereby inhibiting the transition of the cells to complete mitosis.

The subject of data set [2] is ALDH+ CD24low/CD44High breast cancer stem cells (from MDA-MB-468 cells). The data set can be described thus: Apoptosis in sorted breast cancer stem cells versus differentiated cells. The conditions noted are these: 10 μM, two days; ALDH+ CD24low/CD44High vs ALDH- CD24High/CD44low from MDA-MB-468. Here is the method: MDA-MB-468 Cells harvested, washed and incubated in aldefluor assay buffer containing an ALDH substrate (BAAA (BODIPY®-aminoacetaldehyde). For negative control, half of the cells of each sample was removed to another FACS tube and incubated under identical condition with DEAB, a specific inhibitor of ALDH enzyme. Then the cells were stained with the following directly conjugated monoclonal antibodies anti-mouse CD44-APC-Cy7 (Biolegend), anti-mouse CD24-Pacific Blue (EXBIO Praha, a.s.). All analyses and cell sorting were performed on a FACSAria™ cell sorter (BD Biosciences). Debris and cell clusters were excluded during side-scatter and forward-scatter analyses.
ALDH^+ CD24^low/CD44^High breast cancer stem cells were sorted and cultured for 24 h. Cells were then treated with 10 μM of the compound KSA-101696 for two days. At the same time, ALDH^− CD24^High/CD44^low breast cancer differentiated cells were used as a negative control to evaluate the selective apoptotic activity of the compound against breast cancer stem cells compared with differentiated phenotype from the same bulk population of MDA-MB-468 cells.

The test system of the next data set is HT-29 colon cancer cells. The data set can be described thus: CD133 expression by flow cytometry. The conditions noted are these: 10 μM, 48 h. The procedure: In a further experiment, HT-29 colon cancer cells were cultured in 6 well plates and treated by KSA-101696 (10 μM) or vehicle for 48 h. Then, cells were collected and stained with a CD133 antibody and analyzed by flow cytometry.

Data set [3] deals with colony forming SKBR3 cells. The data set can be described thus: 2-D colony formation assay. The conditions noted are these: 5000 viable cells from the ALDEFLUOR assay cells; 60 mm dish. The procedure: Cells were treated with different concentration of the compound or control medium containing 0.1% DMSO for 72 h. Cells were harvested and counted by using trypan blue to exclude the dead cells. A 5000 viable cells of treated and control cells were suspended in 3 ml DMEM supplemented with 10% FBS (Cambrex Bio Science) and seeded in a 60 mm tissue culture dish (Falcon, BD). The next day, a new fresh media was added and the cells were allowed to grow forming colonies for 14 d. The cells were then stained with methylene blue (Sigma-Aldrich, St. Louis, Mo., USA) and colonies containing more than 20 cells were counted.
Thus, from the same cells as used in the ALDEFLUOR assay, 5000 viable cells were seeded in a 60 mm tissue culture dish.

Usually IC50 stands for the midpoint of a concentration-inhibition curve. Turning to `COc1ccc(-c2csc3nc4ccccc4n23)cc1` [KSA-101696, 3-(4-methoxyphenyl)benzo[4,5]imidazo[2,1-b]thiazole], the IC50 in the data set on SKBR3 is 7.5 µM; in the data set with MDA-MB-468 it was about 2.5 µM; with MCF-7 it was about 5 µM. In addition, the “apoptosis (Annexin-V and PI) in normal cells” value in data set [1] is given as “little apoptotic effect”. Moreover, in the data set on MCF-7 cells, the cell cycle distribution result is “accumulation of cells in G2/M phase in a time-dependent manner”. Further, in data set [2], the “induced apoptosis in cancer stem cells compared to differentiated breast cancer cells” value is on record as “two-fold increase”. Also, in the data set on HT-29 colon cancer cells, the “expression of colon cancer stem cell marker CD133” value is listed as “inhibition in the expression of the colon cancer stem cell marker CD133”. In addition, the “inhibition of colony forming cells” value in data set [3] is on record as “showed the same activity in inhibition of colony forming cells”.
